Measurements: ChEMBL document CHEMBL3885881, “DrugMatrix”

Species: Rattus norvegicus
Assay: DrugMatrix - Regimen: Daily Repeat
Format: toxicity, organism-based, Sprague-Dawley
Design: regimen Daily Repeat, gender Male, age 6-8 weeks
Conditions: in vivo, po, route oral GAVAGE, vehicle .5 % CMC; for ABSOLUTE BASOPHIL / ABSOLUTE EOSINOPHIL / ABSOLUTE LYMPHOCYTE / ABSOLUTE MONOCYTE / ABSOLUTE SEGMENTED NEUTROPHIL / BASOPHIL / EOSINOPHIL / ERYTHROCYTE COUNT / HEMATOCRIT / HEMOGLOBIN / LEUKOCYTE COUNT / LYMPHOCYTE / MEAN CORPUSCULAR HEMOGLOBIN / MEAN CORPUSCULAR HEMOGLOBIN CONCENTRATION / MEAN CORPUSCULAR VOLUME / MONOCYTE / NEUTROPHIL / NUCLEATED RED BLOOD CELLS / PLATELET COUNT: tissue Blood; for ALANINE AMINOTRANSFERASE / ALBUMIN / ALKALINE PHOSPHATASE / ASPARTATE AMINOTRANSFERASE / BLOOD UREA NITROGEN / CARBON DIOXIDE / CHLORIDE / CHOLESTEROL / CREATINE PHOSPHOKINASE / CREATININE / GLUCOSE / LACTATE DEHYDROGENASE / LIPASE / PHOSPHORUS / POTASSIUM / SODIUM / TOTAL BILIRUBIN / TOTAL PROTEIN / URIC ACID: tissue Plasma
[1] = 0 mg/kg, 72 h, dose level Control, time 3 day
[2] = 0 mg/kg, 120 h, dose level Control, time 5 day
[3] = 3 mg/kg, 72 h, dose level Low, time 3 day

## O=c1[nH]cc(F)c(=O)[nH]1 [FLUOROURACIL]
[1]
  ABSOLUTE BASOPHIL: 0 CELLS/uL
  ABSOLUTE EOSINOPHIL: 130.33 CELLS/uL
  ABSOLUTE LYMPHOCYTE: 10030.67 CELLS/uL
  ABSOLUTE MONOCYTE: 41 CELLS/uL
  ABSOLUTE SEGMENTED NEUTROPHIL: 1298 CELLS/uL
  BASOPHIL: 0%
  EOSINOPHIL: 1%
  ERYTHROCYTE COUNT: 5.22 x10E6/uL
  HEMATOCRIT: 33.53%
  HEMOGLOBIN: 12.73 G/DL
  LEUKOCYTE COUNT: 11.5 x10E3/uL
  LYMPHOCYTE: 87.67%
  MEAN CORPUSCULAR HEMOGLOBIN: 24.45 pg
  MEAN CORPUSCULAR HEMOGLOBIN CONCENTRATION: 37.97 G/DL
  MEAN CORPUSCULAR VOLUME: 64.33 fL
  MONOCYTE: 0.33%
  NEUTROPHIL: 11%
  NUCLEATED RED BLOOD CELLS: 0 /100WBC
  PLATELET COUNT: 1310.5 x10E3/uL
  ALANINE AMINOTRANSFERASE: 52 u/L
  ALBUMIN: 4.22 G/DL
  ALKALINE PHOSPHATASE: 340.17 u/L
  ASPARTATE AMINOTRANSFERASE: 87.5 u/L
  BLOOD UREA NITROGEN: 15.17 mg/dL
  CARBON DIOXIDE: 25.5 mmol/L
  CHLORIDE: 101.83 MEQ/L
  CHOLESTEROL: 68.17 mg/dL
  CREATINE PHOSPHOKINASE: 379.67 u/L
  CREATININE: 0.17 mg/dL
  GLUCOSE: 181.67 mg/dL
  LACTATE DEHYDROGENASE: 256.17 u/L
  LIPASE: 8 u/L
  PHOSPHORUS: 12.1 mg/dL
  POTASSIUM: 5.88 MEQ/L
  SODIUM: 143.67 MEQ/L
  TOTAL BILIRUBIN: 0.18 mg/dL
  TOTAL PROTEIN: 5.92 G/DL
  URIC ACID: 1.7 mg/dL
[2]
  ABSOLUTE BASOPHIL: 0 CELLS/uL
  ABSOLUTE EOSINOPHIL: 31 CELLS/uL
  ABSOLUTE LYMPHOCYTE: 9599.17 CELLS/uL
  ABSOLUTE MONOCYTE: 52.83 CELLS/uL
  ABSOLUTE SEGMENTED NEUTROPHIL: 1050.33 CELLS/uL
  BASOPHIL: 0%
  EOSINOPHIL: 0.33%
  ERYTHROCYTE COUNT: 5.53 x10E6/uL
  HEMATOCRIT: 35.8%
  HEMOGLOBIN: 13.53 G/DL
  LEUKOCYTE COUNT: 10.73 x10E3/uL
  LYMPHOCYTE: 89%
  MEAN CORPUSCULAR HEMOGLOBIN: 24.47 pg
  MEAN CORPUSCULAR HEMOGLOBIN CONCENTRATION: 37.82 G/DL
  MEAN CORPUSCULAR VOLUME: 64.7 fL
  MONOCYTE: 0.5%
  NEUTROPHIL: 10.17%
  NUCLEATED RED BLOOD CELLS: 0 /100WBC
  PLATELET COUNT: 1028.5 x10E3/uL
  ALANINE AMINOTRANSFERASE: 45.33 u/L
  ALBUMIN: 4.33 G/DL
  ALKALINE PHOSPHATASE: 351.83 u/L
  ASPARTATE AMINOTRANSFERASE: 73.5 u/L
  BLOOD UREA NITROGEN: 17.83 mg/dL
  CARBON DIOXIDE: 24.67 mmol/L
  CHLORIDE: 100 MEQ/L
  CHOLESTEROL: 67 mg/dL
  CREATINE PHOSPHOKINASE: 284 u/L
  CREATININE: 0.2 mg/dL
  GLUCOSE: 152.33 mg/dL
  LACTATE DEHYDROGENASE: 108.67 u/L
  LIPASE: 8.17 u/L
  PHOSPHORUS: 11.17 mg/dL
  POTASSIUM: 6.14 MEQ/L
  SODIUM: 144.68 MEQ/L
  TOTAL BILIRUBIN: 0.22 mg/dL
  TOTAL PROTEIN: 6.08 G/DL
  URIC ACID: 1.27 mg/dL
[3]
  ABSOLUTE BASOPHIL: 0 CELLS/uL
  ABSOLUTE EOSINOPHIL: 34 CELLS/uL
  ABSOLUTE LYMPHOCYTE: 9566.33 CELLS/uL
  ABSOLUTE MONOCYTE: 34 CELLS/uL
  ABSOLUTE SEGMENTED NEUTROPHIL: 1732.33 CELLS/uL
  BASOPHIL: 0%
  EOSINOPHIL: 0.33%
  ERYTHROCYTE COUNT: 5.74 x10E6/uL
  HEMATOCRIT: 36.43%
  HEMOGLOBIN: 13.5 G/DL
  LEUKOCYTE COUNT: 11.37 x10E3/uL
  LYMPHOCYTE: 84%
  MEAN CORPUSCULAR HEMOGLOBIN: 23.57 pg
  MEAN CORPUSCULAR HEMOGLOBIN CONCENTRATION: 37.07 G/DL
  MEAN CORPUSCULAR VOLUME: 63.6 fL
  MONOCYTE: 0.33%
  NEUTROPHIL: 15.33%
  NUCLEATED RED BLOOD CELLS: 0 /100WBC
  PLATELET COUNT: 984 x10E3/uL
  ALANINE AMINOTRANSFERASE: 53.67 u/L
  ALBUMIN: 4.33 G/DL
  ALKALINE PHOSPHATASE: 357 u/L
  ASPARTATE AMINOTRANSFERASE: 102 u/L
  BLOOD UREA NITROGEN: 15 mg/dL
  CARBON DIOXIDE: 26 mmol/L
  CHLORIDE: 100.67 MEQ/L
  CHOLESTEROL: 72.33 mg/dL
  CREATINE PHOSPHOKINASE: 938.33 u/L
  CREATININE: 0.19 mg/dL
  GLUCOSE: 156 mg/dL
  LACTATE DEHYDROGENASE: 212 u/L
  LIPASE: 8.67 u/L
  PHOSPHORUS: 12.53 mg/dL
  POTASSIUM: 6.78 MEQ/L
  SODIUM: 143.77 MEQ/L
  TOTAL BILIRUBIN: 0.23 mg/dL
  TOTAL PROTEIN: 6.07 G/DL
